In US10030020B2, “Spirocycle compounds and methods of making and using same” (Abide Therapeutics, Inc., priority 2016, dated 2018):
Where two headings read alike, the source gives them in different places.

What was measured:
Format in all cases: biochemical
FAAH = FAAH (Mus musculus (Mouse), UniProt O08914); experiment: In vitro competitive activity-based protein profiling (mouse brain membrane fraction or cell lysates), FAAH band; conditions: for inhibition at 1 µM: read-out: FAAH % Inh 1 μM (mouse); for IC50: competitive ABPP
Chain of FAAH (O08914 whole entry): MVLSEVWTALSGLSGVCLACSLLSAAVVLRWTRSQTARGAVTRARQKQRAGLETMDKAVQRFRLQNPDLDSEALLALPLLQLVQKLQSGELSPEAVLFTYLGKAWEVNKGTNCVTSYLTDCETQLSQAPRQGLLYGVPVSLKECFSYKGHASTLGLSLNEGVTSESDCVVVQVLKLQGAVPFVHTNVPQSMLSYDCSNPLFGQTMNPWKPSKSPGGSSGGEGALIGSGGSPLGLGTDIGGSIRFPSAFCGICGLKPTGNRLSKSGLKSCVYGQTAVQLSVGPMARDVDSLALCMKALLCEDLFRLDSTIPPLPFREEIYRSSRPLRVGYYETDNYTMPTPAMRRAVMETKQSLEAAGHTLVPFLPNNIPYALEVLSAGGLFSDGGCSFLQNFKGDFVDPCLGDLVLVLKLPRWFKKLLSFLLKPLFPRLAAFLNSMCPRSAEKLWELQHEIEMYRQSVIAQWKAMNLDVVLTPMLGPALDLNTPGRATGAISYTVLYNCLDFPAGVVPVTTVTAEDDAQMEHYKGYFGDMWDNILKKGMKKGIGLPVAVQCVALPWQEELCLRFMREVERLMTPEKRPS
Summary of the method: (§1)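 Competitive ABPP: proteome 1.0 mg/mL protein + inhibitor, 30 min, 37° C; FP-Rh probe (stock 50 μM in DMSO) added, 30 min, 37° C; SDS quench, SDS-PAGE, fluorescent band intensity read.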

MAGL = MAGL (Mus musculus (Mouse), UniProt O35678); experiment: In vitro competitive activity-based protein profiling (mouse brain membrane fraction or cell lysates), MAGL band; conditions: for inhibition at 1 µM: read-out: MAGL % Inh 1 μM (mouse); for IC50: competitive ABPP
Chain of MAGL (O35678 whole entry): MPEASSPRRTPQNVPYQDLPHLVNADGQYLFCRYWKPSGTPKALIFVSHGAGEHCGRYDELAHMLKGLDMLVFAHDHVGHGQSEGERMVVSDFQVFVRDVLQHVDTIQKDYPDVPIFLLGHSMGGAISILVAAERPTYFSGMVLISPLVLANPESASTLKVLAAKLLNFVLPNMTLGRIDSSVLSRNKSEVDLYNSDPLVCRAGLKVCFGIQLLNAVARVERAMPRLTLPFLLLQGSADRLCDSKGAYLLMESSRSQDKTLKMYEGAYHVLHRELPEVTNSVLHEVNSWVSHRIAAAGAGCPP
Procedure: In Vitro Competitive Activity-Based Protein Profiling.
Proteomes (mouse brain membrane fraction or cell lysates) (50 μL, 1.0 mg/mL total protein concentration) were preincubated with varying concentrations of inhibitors at 37° C. After 30 min, FP—Rh (1.0 μL, 50 μM in DMSO) was added and the mixture was incubated for another 30 min at 37° C. Reactions were quenched with SDS loading buffer (50 μL-4×) and run on SDS-PAGE.

ABHD6 = ABHD6 (Mus musculus (Mouse), UniProt Q8R2Y0); experiment: In vitro competitive activity-based protein profiling (mouse brain membrane fraction or cell lysates), ABHD6 band; conditions: for inhibition at 1 µM: read-out: ABHD6 % Inh 1 μM (mouse); for IC50: competitive ABPP
Chain of ABHD6 (Q8R2Y0 whole entry): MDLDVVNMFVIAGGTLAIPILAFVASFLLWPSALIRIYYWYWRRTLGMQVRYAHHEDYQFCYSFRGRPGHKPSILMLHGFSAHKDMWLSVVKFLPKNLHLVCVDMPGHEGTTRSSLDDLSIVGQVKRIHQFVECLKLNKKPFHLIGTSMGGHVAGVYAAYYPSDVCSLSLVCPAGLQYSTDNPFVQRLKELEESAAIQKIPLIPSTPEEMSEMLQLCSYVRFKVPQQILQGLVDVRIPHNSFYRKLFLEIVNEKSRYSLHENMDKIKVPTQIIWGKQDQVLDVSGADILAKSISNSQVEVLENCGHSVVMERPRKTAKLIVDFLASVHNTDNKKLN
Summary of the method: as §1

inhibition at 1 µM (FAAH; mouse proteome) [%] | IC50 (FAAH; mouse proteome) [nM] | inhibition at 1 µM (MAGL; mouse proteome) [%] | IC50 (MAGL; mouse proteome) [nM] | inhibition at 1 µM (ABHD6; mouse proteome) [%] | IC50 (ABHD6; mouse proteome) [nM] | inhibition at 1 µM (FAAH; mouse) [%] | inhibition at 1 µM (MAGL; mouse) [%] | inhibition at 1 µM (ABHD6; mouse) [%] | Compound
< 25 | > 1000 | > 75 | < 100 | < 25 | > 1000 | – | – | – | Cc1c(CN2CCCC23CCN(C(=O)OC(C(F)(F)F)C(F)(F)F)CC3)cccc1N1CCOCC1 [Example 83, 1,1,1,3,3,3-Hexafluoropropan-2-yl 1-(2-methyl-3-morpholinobenzyl)-1,8-diazaspiro[4.5]decane-8-carboxylate]
– | – | – | – | – | – | < 25 | < 25 | < 25 | Cc1ccc(CN2CCCC23CCN(C(=O)OC(C(F)(F)F)C(F)(F)F)CC3)cc1C(=O)O [Example 257]
< 25 | > 1000 | > 75 | < 100 | < 25 | > 1000 | – | – | – | O=C(OC(C(F)(F)F)C(F)(F)F)N1CCC2(CCCN2Cc2ccc(C(F)(F)F)cc2OC2CCS(=O)(=O)CC2)CC1 [Example 175, 1,1,1,3,3,3-Hexafluoropropan-2-yl 1-(2-((1,1-dioxidotetrahydro-2H-thiopyran-4-yl)oxy)-4-(trifluoromethyl)benzyl)-1,8-diazaspiro[4.5]decane-8-carboxylate]
< 25 | > 1000 | > 75 | 100 to 1000 | < 25 | > 1000 | – | – | – | O=C(OC(C(F)(F)F)C(F)(F)F)N1CCC2(CCN(Cc3c(N4CCCC4)cccc3C(F)(F)F)C2)CC1 [Example 59, 1,1,1,3,3,3-Hexafluoropropan-2-yl 2-(2-(pyrrolidin-1-yl)-6-(trifluoromethyl)benzyl)-2,8-diazaspiro[4.5]decane-8-carboxylate]
< 25 | > 1000 | > 75 | < 100 | ≥ 75 | 100 to 1000 | – | – | – | O=C(OC(C(F)(F)F)C(F)(F)F)N1CCC2(CCN(Cc3ccc(Cl)c(N4CCCC4)c3)C2)CC1 [Example 155, 1,1,1,3,3,3-Hexafluoropropan-2-yl 2-(4-chloro-3-(pyrrolidin-1-yl)benzyl)-2,8-diazaspiro[4.5]decane-8-carboxylate]
< 25 | > 1000 | > 75 | < 100 | ≥ 75 | 100 to 1000 | – | – | – | O=C(OC(C(F)(F)F)C(F)(F)F)N1CCC2(CCN(Cc3ccc(C(F)(F)F)c(N4CCOCC4)c3)C2)CC1 [Example 156, 1,1,1,3,3,3-Hexafluoropropan-2-yl 2-(3-morpholino-4-(trifluoromethyl)benzyl)-2,8-diazaspiro[4.5]decane-8-carboxylate]
< 25 | > 1000 | > 75 | 100 to 1000 | < 25 | > 1000 | – | – | – | O=C(OC(C(F)(F)F)C(F)(F)F)N1CCC2(CCCN2Cc2ccc(C(F)(F)F)cc2Oc2nc3ccccc3s2)CC1 [Example 171, 1,1,1,3,3,3-Hexafluoropropan-2-yl 1-(2-(benzo[d]thiazol-2-yloxy)-4-(trifluoromethyl)benzyl)-1,8-diazaspiro[4.5]decane-8-carboxylate]
< 25 | > 1000 | > 75 | – | < 25 | > 1000 | – | – | – | COc1ccc(CN2CCCC23CCN(C(=O)OC(C(F)(F)F)C(F)(F)F)CC3)cc1 [Example 1, 1,1,1,3,3,3-Hexafluoropropan-2-yl 1-(4-methoxybenzyl)-1,8-diazaspiro[4.5]decane-8-carboxylate]
< 25 | > 1000 | > 75 | 100 to 1000 | ≥ 75 | < 100 | – | – | – | O=C(OC(C(F)(F)F)C(F)(F)F)N1CCC2(CCN(Cc3ccc4c(c3)COC4)C2)CC1 [Example 153, 1,1,1,3,3,3-Hexafluoropropan-2-yl 2-((1,3-dihydroisobenzofuran-5-yl)methyl)-2,8-diazaspiro[4.5]decane-8-carboxylate]
< 25 | > 1000 | > 75 | 100 to 1000 | ≥ 75 | 100 to 1000 | – | – | – | O=C(OC(C(F)(F)F)C(F)(F)F)N1CCC2(CCCN2Cc2ccc(Cl)cc2N2CCS(=O)(=O)CC2)CC1 [Example 103, 1,1,1,3,3,3-Hexafluoropropan-2-yl 1-(4-chloro-2-(1,1-dioxidothiomorpholino)benzyl)-1,8-diazaspiro[4.5]decane-8-carboxylate]
< 25 | > 1000 | > 75 | < 100 | < 25 | > 1000 | – | – | – | O=C(OC(C(F)(F)F)C(F)(F)F)N1CCC2(CCCN2Cc2cc(Cl)cc(N3CCC(F)CC3)c2)CC1 [Example 39, 1,1,1,3,3,3-Hexafluoropropan-2-yl 1-(3-chloro-5-(4-fluoropiperidin-1-yl)benzyl)-1,8-diazaspiro[4.5]decane-8-carboxylate]
< 25 | > 1000 | > 75 | – | ≥ 75 | < 100 | – | – | – | O=C(OC(C(F)(F)F)C(F)(F)F)N1CCC2(CCN(Cc3ccc(N4CCOCC4)c(Cl)c3)C2)CC1 [Example 138, 1,1,1,3,3,3-Hexafluoropropan-2-yl 2-(3-chloro-4-morpholinobenzyl)-2,8-diazaspiro[4.5]decane-8-carboxylate]
< 25 | > 1000 | > 75 | 100 to 1000 | ≥ 75 | 100 to 1000 | – | – | – | O=C(OC(C(F)(F)F)C(F)(F)F)N1CCC2(CCN(Cc3ccc(N4CCCC4)c(C(F)(F)F)c3)C2)CC1 [Example 141, 1,1,1,3,3,3-Hexafluoropropan-2-yl 2-(4-(pyrrolidin-1-yl)-3-(trifluoromethyl)benzyl)-2,8-diazaspiro[4.5]decane-8-carboxylate]
< 25 | > 1000 | > 75 | < 100 | 25 to 75 | 100 to 1000 | – | – | – | CC1(C)CC2(CCN(C(=O)OC(C(F)(F)F)C(F)(F)F)CC2)CN1Cc1cc(CN2CCOCC2)ccc1OC(F)(F)F [Example 192, 1,1,1,3,3,3-Hexafluoropropan-2-yl 3,3-dimethyl-2-(5-(morpholinomethyl)-2-(trifluoromethoxy)benzyl)-2,8-diazaspiro[4.5]decane-8-carboxylate]
< 25 | – | > 75 | – | < 25 | – | – | – | – | O=C(O)[C@H]1CCCN(c2cc(CN3CCCC34CCN(C(=O)OC(C(F)(F)F)C(F)(F)F)CC4)cc(C(F)(F)F)c2)C1 [Example 213]
< 25 | > 1000 | > 75 | – | < 25 | > 1000 | – | – | – | O=C(OC(C(F)(F)F)C(F)(F)F)N1CCC2(CCCN2Cc2ccccc2)CC1 [Example 63, 1,1,1,3,3,3-Hexafluoropropan-2-yl 1-benzyl-1,8-diazaspiro[4.5]decane-8-carboxylate]
< 25 | > 1000 | > 75 | 100 to 1000 | 25 to 75 | > 1000 | – | – | – | CC(C)CN1CCc2cccc(CN3CCCC34CCN(C(=O)OC(C(F)(F)F)C(F)(F)F)CC4)c2C1 [Example 149, 1,1,1,3,3,3-Hexafluoropropan-2-yl 1-((2-(2-methylpropyl)-1,2,3,4-tetrahydroisoquinolin-8-yl)methyl)-1,8-diazaspiro[4.5]decane-8-carboxylate]
< 25 | > 1000 | > 75 | < 100 | 25 to 75 | > 1000 | – | – | – | O=C(OC(C(F)(F)F)C(F)(F)F)N1CCC2(CCCN2Cc2ccc3c(c2)OCCO3)CC1 [Example 126, 1,1,1,3,3,3-Hexafluoropropan-2-yl 1-(2,3-dihydro-1,4-benzodioxin-6-ylmethyl)-1,8-diazaspiro[4.5]decane-8-carboxylate]
< 25 | > 1000 | > 75 | < 100 | ≥ 75 | 100 to 1000 | – | – | – | CC(C)CN1CCc2cccc(CN3CCC4(CCN(C(=O)OC(C(F)(F)F)C(F)(F)F)CC4)C3)c2C1 [Example 164, 1,1,1,3,3,3-Hexafluoropropan-2-yl 2-((2-isobutyl-1,2,3,4-tetrahydroisoquinolin-8-yl)methyl)-2,8-diazaspiro[4.5]decane-8-carboxylate]
< 25 | > 1000 | > 75 | 100 to 1000 | 25 to 75 | 100 to 1000 | – | – | – | CC1(C)CC2(CCN(C(=O)OC(C(F)(F)F)C(F)(F)F)CC2)CN1Cc1cc(N2CCOCC2)cc(C(F)(F)F)c1 [Example 188, 1,1,1,3,3,3-Hexafluoropropan-2-yl 3,3-dimethyl-2-(3-morpholino-5-(trifluoromethyl)benzyl)-2,8-diazaspiro[4.5]decane-8-carboxylate]
< 25 | > 1000 | > 75 | < 100 | < 25 | > 1000 | – | – | – | CS(=O)(=O)N1CCN(c2cc(Cl)cc(CN3CCCC34CCN(C(=O)OC(C(F)(F)F)C(F)(F)F)CC4)c2)CC1 [Example 40, 1,1,1,3,3,3-Hexafluoropropan-2-yl 1-(3-chloro-5-(4-(methylsulfonyl)piperazin-1-yl)benzyl)-1,8-diazaspiro[4.5]decane-8-carboxylate]
